The source of these data is patent US12213481B1, “4,4′-[(2-hydroxypropane-1,3-diyl)bis(oxy)]dibenzaldehyde as an eco-friendly insecticidal agent against Spodoptera littoralis (boisd.)” (KING FAISAL UNIVERSITY, priority 2023, dated 2025).

In data set [1] the test system is Spodoptera littoralis larvae (2nd and 4th instars, laboratory strain of cotton leafworm). Nature of the data set: Insecticidal leaf dip bioassay screening. The following applies: for LC50: Spodoptera littoralis, in Gossypium hirsutum, foliar, 72 h; for Toxicity index %: fenoxycarb's LC50/compound's LC50 * 100.
Experimental: (§1) Five concentrations (200, 100, 50, 25, 12.5 ppm) were designed for this synthetic compound and the reference fenoxycarb's compound as the dynamic ingredients based on ppm via diluting the commercial formulation.
(§2) In this experiment, the synthetic compound was tested for its insecticidal bioactivity using the industry-standard leaf dip bioassay techniques. […] Until usage, the stocks were kept in a refrigerator. The target substance test results were noted & the concentrations needed to destroy 50% (LC50) of S. littoralis larvae were calculated. The target compound was employed in five different concentrations, & 0.1% Tween 80 was employed as a surfactant. Castor bean leaf discs (nine centimeters in diameter) were dipped in the concentration under test for ten seconds, then fed to 2th & 4th larvae, which were roughly the same size and housed in glass jars (five pound). Each action carried out 3 times with ten larvae each. The mortality equalized via Abbott's formula. Calculations of mortality setback line were measurably rummage via probity analysis. Harmfulness index was strongminded via sun equations. The mortality results of larval insect were estimated through employing probit analysis through a statistics (LDP-line) equation which estimate the LC50 values with 95% fiducially limits of lower, upper confidence limit and slope.
For data set [2] the test system is unchanged. The conditions noted are these: in vivo.
Experimental: as §1, §2
Another data set has as its system aquatic insects. The following applies: cited from earlier work.
[3] abbreviates: read-out: LC50 (mg/L) at 95%, 2nd instar larvae, after 72 hours of treatment, leaf dip.
Setting [4] is: read-out: LC50 (mg/L) at 95%, 4th instar larvae, after 72 hours of treatment, leaf dip.

In brackets after ≈: the same amount, converted by molar mass. Read-outs that look alike come from different tables or passages of the source.

With `CCOC(=O)NCCOc1ccc(Oc2ccccc2)cc1` [fenoxycarb, reference compound], the LC50 in data set [1] (setting [3]) worked out at 5.94 mg/L (≈ 19.7 µM); in data set [1] (setting [4]) it was 59.9 mg/L (≈ 199 µM).
Regarding `O=Cc1ccc(OCC(O)COc2ccc(C=O)cc2)cc1` [Compound 1, 4,4′-[(2-hydroxypropane-1,3-diyl)bis(oxy)]dibenzaldehyde], the Toxicity index % in data set [1] (2nd instar larvae, 72 hours) worked out at 22.93%; in data set [1] (4th instar larvae, 72 hours), 69.54%. The LC50 in data set [1] (setting [3]) is 25.6 mg/L (≈ 85.3 µM); in data set [1] (setting [4]), about 86.1 mg/L (≈ 287 µM). Besides, the “activity against Spodoptera littoralis (in words)” value in data set [1] (compared with the reference insecticide Fenoxycarb, 72 hours) was “active against Spodoptera littoralis”. Besides, in data set [2], the “LC50 (mg/L) at 95%” value was “about 25.62 mg/L”.
In the case of `CCc1ccc(C(=O)NN(C(=O)c2cc(C)cc(C)c2)C(C)(C)C)cc1` [tebufenozide], the LC50 with aquatic insects was 100 to 1000 µg/mL.
